Assays:
[1] = system: IL-4 induced STAT6 phosphorylation in BMDMs from JAK3 Cys905Ser knockin mice; assay: IL-4 induced STAT6 phosphorylation in JAK3 Cys905Ser knockin BMDMs (immunoblot); type: cell-based, mouse; settings: Mus musculus, BMDM, 0.5 h; 10 ng/ml IL-4 30 min, pSTAT6 Tyr641 immunoblot, two independent experiments
Experimental: (§1) Figure 3 Effect of JAK3 inhibitors on IL-4 induced STAT6 phosphorylation. BMDMs were isolated from wild type and JAK3 Cys905Ser knockin mice. Cells were incubated with the indicated concentrations of inhibitor before stimulation for 30 min with 10 ng/ml IL-4. Cells were lysed and the levels of STAT6 phosphorylated at Tyr641 were assessed by immunoblotting. Levels of ERK1/2 were determined as a loading control.
(§2) Bone marrow derived macrophages (BMDMs) were cultured as described. Briefly, bone marrow was flushed in PBS from the femurs and tibias of mice. Cells were cultured on bacterial grade plastic for 7 days at 37 °C, 5% CO2. Cells were then detached using Versene (Gibco), re-plated on tissue culture plastic in BMDM media (in DMEM supplemented with 10% heat inactivated FBS (Labtech), 2 mM L-glutamine, 100 U/ml penicillin G, 100 μg/ml streptomycin and 0.25 μg/ml amphotericin, 5 ng/ml M-CSF) and used within 48 h. Where indicated cells were stimulated with 10 ng/ml IL-4, 10 ng/ml GM-CSF, 10 ng/ml IL-10 or 10 ng/ml IFNβ. All cytokines were from PeproTech.
(§3) Cells were lysed directly into SDS sample buffer and aliquots run on 10% polyacrylamide gels using standard methods. Proteins were transferred onto nitrocellulose membranes, and specific proteins were detected by immunoblotting. Antibodies against tyrosine phosphorylated STATs were from Cell Signaling Technology (phospho-STAT1 #9167, phospho-STAT3 #9131, phospho-STAT5 #4322 and phospho-STAT6 #9361). The total ERK1/2 antibody used as a loading control was also from cell Signaling Technology (#4695). HRP-conjugated secondary antibodies were obtained from Pierce. Bands were detected using Clarity ECL reagents from BioRad and imaged on a Licor Odyssey Fc system. Quantification was carried out using Licor Image Studio software. After correction for the ERK1/2 levels to account for loading differences, percentage inhibition was calculated relative to the IL-4 stimulated condition. IC50 values were calculated using the same methods as for the in vitro IC50 values.

[2] = system: IL-4 induced STAT6 phosphorylation in wild type BMDMs; assay: IL-4 induced STAT6 phosphorylation in wild type BMDMs (immunoblot); type: cell-based; settings: Mus musculus, BMDM, 0.5 h; 10 ng/ml IL-4 30 min, pSTAT6 Tyr641 immunoblot, two independent experiments
Experimental: as §1, §2, §3

[3] = system: IL-4 induced STAT6 phosphorylation in wild type BMDMs; assay: Inhibitor washout, IL-4 induced STAT6 phosphorylation, wild type BMDMs; type: cell-based, mouse; settings: inhibitor 2 h, 0.5 μM Ruxolitinib
Experimental: Covalent inhibitors would be predicted to have very slow off rates and therefore inhibition should remain even if the unbound inhibitors are washed out of the cells. To test this, cells were treated with a high concentration of inhibitor for 2 h before being washed 3 times in PBS and then incubated in media without inhibitor for 0.5 to 24 h. If the inhibitor acts via a non-covalent mechanism, inhibition would not be expected to remain following washout from the cells. Ruxolitinib is a non-covalent pan-JAK inhibitor that can inhibit multiple JAK-STAT pathways in macrophages. […] To confirm this was not the case, similar experiments were done in JAK3 Cys905Ser knockin cells. […] Similar experiments were also carried out with PF-06651600. […] As the level of inhibition was lower at 2 h post washout than 30 min the experiment was repeated to look at 4 and 24 h time points for the washout step.
Figure 4 Effect of inhibitor washout on JAK3 inhibition. BMDMs were isolated from wild type and JAK3 Cys905Ser knockin mice. […] The macrophages were then either stimulated with 10 ng/ml IL-4 for 30 min or washed 3 times in PBS and then incubated in media without inhibitor for the indicated times. The cells were then stimulated with IL-4 for 30 min and STAT6 phosphorylation determined by immunoblotting using levels of ERK1/2 as a loading control.
as §2, §3

Row | Structure (SMILES) | IC50 [1] [nM] | IC50 [2] [nM] | block of IL-4 induced STAT6 phosphorylation without washout, wild type BMDMs ([3]; no washout, 10 μM TL6-144) | inhibition of IL-4 induced STAT6 phosphorylation after inhibitor washout, wild type BMDMs ([3]; washed 3 times in PBS, IL-4 30 min to 2 h after washout, 10 μM TL6-144, 100 μM PF-06651600)
1 | CN(C)C(=O)/C(C#N)=C/c1ccc(-c2nc3cnc4[nH]ccc4c3n2C2CCCCC2)o1 [FM-381, reference compound] | 890 | 180 |  | 
2 | N#CC[C@H](C1CCCC1)n1cc(-c2ncnc3[nH]ccc23)cn1 [Ruxolitinib] |  |  | completely block | completely lost
